Results published in patent US20150307520A1, “NOVEL HETEROARYL AND HETEROCYCLE COMPOUNDS, COMPOSITIONS AND METHODS THEREOF” (HUTCHISON MEDIPHARMA LIMITED, priority 2012, published 2015).

How the values were obtained:
Format in all cases: biochemical
p110β/p85α = p110β/p85α (Homo sapiens, UniProt P42338); test: Transcreener KINASE Assay, kinase inhibition of p110β/p85α; settings: for PI3Kβ IH % @ 1 uM: 1 uM test compound; for IC50: read-out: PI3Kβ IC50
Outline: (§1)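 Kinase reactions run 80 min at room temperature, pH buffered with 50 mM HEPES plus 3 mM MgCl2 and 0.03% CHAPS; the PIP2/ATP mix added was 30 uM/10 uM. Generated ADP is then read by FP immunoassay.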

p110γ = p110γ (Homo sapiens, UniProt P48736); test: Transcreener KINASE Assay, kinase inhibition of p110γ; settings: for PI3Kγ IH % @ 1 uM: 1 uM test compound; for IC50: read-out: PI3Kγ IC50
p110γ, sequence (P48736 whole entry, canonical isoform): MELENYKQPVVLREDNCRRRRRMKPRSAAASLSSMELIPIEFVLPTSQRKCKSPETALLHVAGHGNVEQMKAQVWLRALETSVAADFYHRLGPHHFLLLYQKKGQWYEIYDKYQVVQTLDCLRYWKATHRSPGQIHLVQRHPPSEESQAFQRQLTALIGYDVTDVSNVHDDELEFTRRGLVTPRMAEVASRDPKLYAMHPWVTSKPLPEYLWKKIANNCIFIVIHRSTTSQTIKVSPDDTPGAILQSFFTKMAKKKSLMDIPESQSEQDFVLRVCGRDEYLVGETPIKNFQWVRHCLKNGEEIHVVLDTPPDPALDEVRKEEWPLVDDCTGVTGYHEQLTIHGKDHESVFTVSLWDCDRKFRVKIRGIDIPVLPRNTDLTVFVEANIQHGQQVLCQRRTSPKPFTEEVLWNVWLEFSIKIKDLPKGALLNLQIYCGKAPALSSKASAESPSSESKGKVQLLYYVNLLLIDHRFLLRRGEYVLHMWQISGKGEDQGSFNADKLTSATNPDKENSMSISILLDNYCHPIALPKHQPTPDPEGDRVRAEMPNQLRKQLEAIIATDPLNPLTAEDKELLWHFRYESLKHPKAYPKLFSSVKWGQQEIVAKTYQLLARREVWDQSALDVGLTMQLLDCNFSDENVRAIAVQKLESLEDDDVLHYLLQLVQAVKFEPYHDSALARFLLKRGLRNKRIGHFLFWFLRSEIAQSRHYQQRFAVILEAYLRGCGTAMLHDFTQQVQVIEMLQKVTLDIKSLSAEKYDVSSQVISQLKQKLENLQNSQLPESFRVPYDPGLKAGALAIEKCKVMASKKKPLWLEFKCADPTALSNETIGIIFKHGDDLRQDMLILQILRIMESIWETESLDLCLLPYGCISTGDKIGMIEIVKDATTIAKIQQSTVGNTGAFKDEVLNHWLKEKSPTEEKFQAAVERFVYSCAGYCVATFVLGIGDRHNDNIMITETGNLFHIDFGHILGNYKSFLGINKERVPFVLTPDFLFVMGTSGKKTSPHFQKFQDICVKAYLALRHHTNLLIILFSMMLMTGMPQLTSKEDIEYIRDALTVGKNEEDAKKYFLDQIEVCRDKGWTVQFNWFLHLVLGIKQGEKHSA
Outline: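 Recombinant PI3K isoform complexes were tested in a two-step endpoint ADP-detection assay. Kinase reaction ran 80 min at room temperature, followed by 60 min with ADP detection mix. Far-red competitive fluorescence polarization immunoassay read-out; IC50s fitted from the FP data.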

p110δ/p85α = p110δ/p85α (Homo sapiens, UniProt O00329); test: Transcreener KINASE Assay, kinase inhibition of p110δ/p85α; settings: for PI3Kδ IH % @ 1 uM: 1 uM test compound; for IC50: read-out: PI3Kδ IC50
p110δ/p85α, sequence (O00329 whole entry): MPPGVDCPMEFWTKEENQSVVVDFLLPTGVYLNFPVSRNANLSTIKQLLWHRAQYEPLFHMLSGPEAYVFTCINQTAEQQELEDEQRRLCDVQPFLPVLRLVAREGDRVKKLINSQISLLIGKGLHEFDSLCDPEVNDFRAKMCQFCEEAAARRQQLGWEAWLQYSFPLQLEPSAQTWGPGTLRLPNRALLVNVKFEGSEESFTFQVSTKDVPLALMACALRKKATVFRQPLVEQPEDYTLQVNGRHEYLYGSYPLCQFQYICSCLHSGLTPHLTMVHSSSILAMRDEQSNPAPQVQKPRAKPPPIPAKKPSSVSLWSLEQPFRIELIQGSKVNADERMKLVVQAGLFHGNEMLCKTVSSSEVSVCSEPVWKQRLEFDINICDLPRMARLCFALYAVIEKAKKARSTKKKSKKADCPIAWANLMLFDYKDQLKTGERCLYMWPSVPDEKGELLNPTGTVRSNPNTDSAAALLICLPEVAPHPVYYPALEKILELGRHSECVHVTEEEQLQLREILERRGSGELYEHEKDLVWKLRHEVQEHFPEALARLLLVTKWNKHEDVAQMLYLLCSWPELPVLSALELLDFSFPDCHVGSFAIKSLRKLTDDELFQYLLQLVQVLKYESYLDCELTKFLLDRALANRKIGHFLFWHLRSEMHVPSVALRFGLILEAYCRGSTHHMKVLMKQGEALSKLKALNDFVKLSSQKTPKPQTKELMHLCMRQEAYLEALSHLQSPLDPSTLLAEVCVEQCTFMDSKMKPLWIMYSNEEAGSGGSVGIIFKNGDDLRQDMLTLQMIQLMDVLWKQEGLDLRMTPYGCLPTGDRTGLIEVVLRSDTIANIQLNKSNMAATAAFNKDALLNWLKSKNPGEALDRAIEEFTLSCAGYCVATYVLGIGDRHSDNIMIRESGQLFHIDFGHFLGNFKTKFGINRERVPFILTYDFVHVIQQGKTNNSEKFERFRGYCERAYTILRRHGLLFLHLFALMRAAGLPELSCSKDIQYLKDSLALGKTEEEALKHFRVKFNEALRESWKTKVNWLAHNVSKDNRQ
p110δ/p85α, sequence (P27986 whole entry partner): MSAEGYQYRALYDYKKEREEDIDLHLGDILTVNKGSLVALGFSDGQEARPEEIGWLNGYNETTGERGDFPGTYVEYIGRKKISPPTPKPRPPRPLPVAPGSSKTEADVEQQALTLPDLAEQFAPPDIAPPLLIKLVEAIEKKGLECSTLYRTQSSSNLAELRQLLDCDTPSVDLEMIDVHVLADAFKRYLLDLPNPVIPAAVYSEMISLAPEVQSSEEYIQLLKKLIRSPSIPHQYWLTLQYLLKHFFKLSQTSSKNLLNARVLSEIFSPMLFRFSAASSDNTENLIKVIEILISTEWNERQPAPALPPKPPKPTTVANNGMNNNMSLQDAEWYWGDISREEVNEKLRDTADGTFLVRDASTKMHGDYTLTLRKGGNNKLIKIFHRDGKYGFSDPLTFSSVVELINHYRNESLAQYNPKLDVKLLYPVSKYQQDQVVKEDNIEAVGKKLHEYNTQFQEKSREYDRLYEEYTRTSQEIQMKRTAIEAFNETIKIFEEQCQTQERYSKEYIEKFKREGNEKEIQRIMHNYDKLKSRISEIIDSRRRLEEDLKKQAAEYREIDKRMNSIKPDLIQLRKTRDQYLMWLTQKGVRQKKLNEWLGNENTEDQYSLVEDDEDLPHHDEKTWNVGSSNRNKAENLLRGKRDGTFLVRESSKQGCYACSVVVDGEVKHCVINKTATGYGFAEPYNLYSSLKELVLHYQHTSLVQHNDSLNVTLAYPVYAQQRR
Outline: as §1

p110β/p85α, sequence (P42338 whole entry): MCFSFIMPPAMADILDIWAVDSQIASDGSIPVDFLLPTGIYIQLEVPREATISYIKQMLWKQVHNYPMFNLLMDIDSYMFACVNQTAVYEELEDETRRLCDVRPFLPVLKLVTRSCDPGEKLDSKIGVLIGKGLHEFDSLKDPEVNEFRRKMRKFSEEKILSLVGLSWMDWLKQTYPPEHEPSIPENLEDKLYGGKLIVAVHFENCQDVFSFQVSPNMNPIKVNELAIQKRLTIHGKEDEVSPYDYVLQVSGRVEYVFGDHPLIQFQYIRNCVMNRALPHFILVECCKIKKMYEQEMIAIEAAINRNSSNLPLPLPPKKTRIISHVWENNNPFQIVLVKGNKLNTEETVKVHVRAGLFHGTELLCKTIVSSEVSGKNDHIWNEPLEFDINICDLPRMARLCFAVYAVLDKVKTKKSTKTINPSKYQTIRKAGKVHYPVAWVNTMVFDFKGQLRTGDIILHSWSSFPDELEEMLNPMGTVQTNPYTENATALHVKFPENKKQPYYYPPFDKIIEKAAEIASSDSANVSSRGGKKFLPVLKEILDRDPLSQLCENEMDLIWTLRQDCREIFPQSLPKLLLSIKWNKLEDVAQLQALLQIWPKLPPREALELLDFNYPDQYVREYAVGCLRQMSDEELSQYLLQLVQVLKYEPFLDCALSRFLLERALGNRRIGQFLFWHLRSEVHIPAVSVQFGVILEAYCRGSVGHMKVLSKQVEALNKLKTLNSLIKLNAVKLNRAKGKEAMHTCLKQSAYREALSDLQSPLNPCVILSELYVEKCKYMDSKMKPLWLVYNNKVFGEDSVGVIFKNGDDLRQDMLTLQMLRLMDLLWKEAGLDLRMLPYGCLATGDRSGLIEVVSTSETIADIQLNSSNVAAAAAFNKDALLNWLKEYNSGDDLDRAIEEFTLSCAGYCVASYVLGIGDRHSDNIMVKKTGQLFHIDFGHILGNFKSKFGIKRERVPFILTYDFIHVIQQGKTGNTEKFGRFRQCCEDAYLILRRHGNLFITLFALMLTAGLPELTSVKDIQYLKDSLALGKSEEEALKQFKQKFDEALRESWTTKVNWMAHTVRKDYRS
p110β/p85α, sequence (P27986 2-724 partner): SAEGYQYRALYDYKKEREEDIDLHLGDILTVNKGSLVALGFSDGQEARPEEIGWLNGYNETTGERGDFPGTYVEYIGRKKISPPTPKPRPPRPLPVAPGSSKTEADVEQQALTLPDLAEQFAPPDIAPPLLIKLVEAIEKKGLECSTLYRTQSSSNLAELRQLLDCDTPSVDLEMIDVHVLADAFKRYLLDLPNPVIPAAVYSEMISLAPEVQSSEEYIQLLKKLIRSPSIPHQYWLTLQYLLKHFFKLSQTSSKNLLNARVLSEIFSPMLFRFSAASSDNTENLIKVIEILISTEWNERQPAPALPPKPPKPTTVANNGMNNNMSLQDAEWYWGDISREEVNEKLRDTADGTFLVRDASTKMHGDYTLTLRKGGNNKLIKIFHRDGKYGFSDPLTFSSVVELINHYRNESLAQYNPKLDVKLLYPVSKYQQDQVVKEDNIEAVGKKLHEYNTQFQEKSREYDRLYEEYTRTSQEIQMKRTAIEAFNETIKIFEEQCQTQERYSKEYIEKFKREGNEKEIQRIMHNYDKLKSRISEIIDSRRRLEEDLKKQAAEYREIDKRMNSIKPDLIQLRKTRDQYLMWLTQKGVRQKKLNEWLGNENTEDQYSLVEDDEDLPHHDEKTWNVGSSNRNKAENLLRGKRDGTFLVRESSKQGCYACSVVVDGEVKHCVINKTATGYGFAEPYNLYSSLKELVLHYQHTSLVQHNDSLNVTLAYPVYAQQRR

| SMILES | PI3Kβ IH % @ 1 uM (p110β/p85α) [%] | IC50 (p110β/p85α) [nM] | PI3Kγ IH % @ 1 uM (p110γ) [%] | IC50 (p110γ) [nM] | PI3Kδ IH % @ 1 uM (p110δ/p85α) [%] | IC50 (p110δ/p85α) [nM] |
| --- | --- | --- | --- | --- | --- | --- |
| O=c1c2c(Cl)ccn2nc([C@@H]2CCCN2c2nc(F)nc3[nH]cnc23)n1-c1ccccc1 [Compound 146] | 77.9 | 120 | 97.3 | 9 | >100 | 1 |
| O=c1c2c(Cl)ccn2nc([C@@H]2CCCN2c2ncnc3[nH]cc(F)c23)n1-c1ccccc1 [Compound 147] | 65.3 | – | 94.3 | 4 | >100 | 1 |
| O=c1c2c(Cl)ccn2nc([C@@H]2CCN2c2ncnc3[nH]cc(F)c23)n1-c1ccccc1 [Compound 148] | 19.5 | – | 83.0 | 173 | 86.7 | 44 |
| COCc1ccn2nc([C@@H]3CCCN3c3ncnc4[nH]cnc34)n(-c3ccccc3)c(=O)c12 [Compound 149] | −35.9 | – | 74.2 | 348 | 95.9 | 52 |
| COCc1ccn2nc([C@@H]3CCCN3c3ncnc4[nH]cc(C#N)c34)n(-c3ccccc3)c(=O)c12 [Compound 150] | 31.5 | – | 92.6 | 92 | >100 | 3 |
| COCc1ccn2nc([C@@H]3CCCN3c3nc(N)ncc3C(F)(F)F)n(-c3ccccc3)c(=O)c12 [Compound 151] | 11.4 | – | 22.8 | – | 52.4 | – |
| N#Cc1c[nH]c2ncnc(N3CCOCC3c3nn4ccc(Cl)c4c(=O)n3-c3ccccc3)c12 (centres unmarked) [Compound 152] | 54.4 | – | 79.3 | 287 | 99.2 | 5 |
| O=c1c2c(Cl)ccn2nc([C@@H]2COCCN2c2ncnc3[nH]cnc23)n1-c1ccccc1 [Compound 153] | 56.5 | – | 85.8 | – | >100 | – |
| CC(Nc1nc(N)ncc1C(F)(F)F)c1cc2ncc(Cl)n2c(=O)n1-c1ccccc1 (centres unmarked) [Compound 154] | 56.7 | – | 93.7 | 40 | 97.6 | 3 |
| N#Cc1c[nH]c2ncnc(N3CCC[C@H]3c3nn4ccc(Cl)c4c(=O)n3Cc3ncccn3)c12 [Compound 155] | 56.0 | – | 94.9 | 133 | 96.4 | 23 |
| O=c1c2c(Cl)ccn2nc([C@@H]2CCCN2c2ncnc3[nH]cnc23)n1Cc1ncccn1 [Compound 156] | 42.2 | – | 64.0 | – | 83.4 | 169 |
| O=c1c2c(Cl)ccn2nc([C@@H]2C[C@H](F)CN2c2ncnc3[nH]cnc23)n1Cc1ccccn1 [Compound 157] | 39.5 | – | 79.9 | 280 | >100 | 21 |
| N#Cc1c[nH]c2ncnc(N3C[C@@H](F)C[C@H]3c3nn4ccc(Cl)c4c(=O)n3Cc3ccccn3)c12 [Compound 158] | 71.1 | 473 | >100 | 46 | >100 | 6 |
| N#Cc1c[nH]c2ncnc(N3CC(F)(F)C[C@H]3c3nn4ccc(Cl)c4c(=O)n3Cc3ccccn3)c12 [Compound 160] | 11.4 | – | 34.3 | – | 80.2 | 140 |
| O=c1c2c(Cl)ccn2nc([C@@H]2CC(F)(F)CN2c2ncnc3[nH]cnc23)n1Cc1ncccn1 [Compound 161] | 15.3 | – | −8.4 | – | 45.7 | – |
| N#Cc1c[nH]c2ncnc(N3CCC[C@H]3c3nn4ccc(Cl)c4c(=O)n3C3CCC3)c12 [Compound 162] | 83.2 | 137 | 97.7 | 6 | >100 | 1 |
| NC(=O)c1c[nH]c2ncnc(N3CC[C@H]3c3nn4ccc(Cl)c4c(=O)n3-c3ccccc3)c12 [Compound 163] | −3.2 | – | 0.6 | – | 31.3 | – |
| O=C(c1c[nH]c2ncnc(N3CCC[C@H]3c3nn4ccc(Cl)c4c(=O)n3-c3ccccc3)c12)N1CCOCC1 [Compound 164] | 22.9 | – | 64.9 | – | 62.3 | – |

| SMILES | PI3Kβ IH % @ 1 uM (p110β/p85α) [%] | IC50 (p110β/p85α) [nM] | PI3Kγ IH % @ 1 uM (p110γ) [%] | IC50 (p110γ) [nM] | PI3Kδ IH % @ 1 uM (p110δ/p85α) [%] | IC50 (p110δ/p85α) [nM] |
| --- | --- | --- | --- | --- | --- | --- |
| O=c1c2c(Cl)ccn2nc([C@@H]2CCN2c2ncnc3[nH]cc(C#CCO)c23)n1-c1ccccc1 [Compound 165] | 71.3 | 400 | >100 | 2 | >100 | 1 |
| Nc1ncc(-c2n[nH]c3ncnc(N4CCC[C@H]4c4nn5ccc(Cl)c5c(=O)n4-c4ccccc4)c23)cn1 [Compound 166] | >100 | 17 | >100 | 2 | 97.2 | 1 |
| Nc1ccc(-c2n[nH]c3ncnc(N4CCC[C@H]4c4nn5ccc(Cl)c5c(=O)n4-c4ccccc4)c23)cn1 [Compound 167] | 42.3 | – | >100 | 21 | >100 | 5 |
| COc1ncc(-c2n[nH]c3ncnc(N4CCC[C@H]4c4nn5ccc(Cl)c5c(=O)n4-c4ccccc4)c23)cn1 [Compound 168] | 98.8 | – | 95.1 | – | >100 | – |
| Nc1ccc(-c2n[nH]c3ncnc(N4CC[C@H]4c4nn5ccc(Cl)c5c(=O)n4-c4ccccc4)c23)cn1 [Compound 169] | −21.1 | – | 31.2 | – | 88.0 | 4 |
| COc1ccc(-c2n[nH]c3ncnc(N4CC[C@H]4c4nn5ccc(Cl)c5c(=O)n4-c4ccccc4)c23)cn1 [Compound 170] | 4.6 | – | 66.5 | – | 96.1 | 5 |
| Nc1ncc(-c2n[nH]c3ncnc(N4CC[C@H]4c4nn5ccc(Cl)c5c(=O)n4-c4ccccc4)c23)cn1 [Compound 171] | 25.2 | – | 75.3 | 130 | 96.6 | 5 |
| COc1ncc(-c2n[nH]c3ncnc(N4CC[C@H]4c4nn5ccc(Cl)c5c(=O)n4-c4ccccc4)c23)cn1 [Compound 172] | 38.2 | – | 79.8 | 297 | 99.6 | 2 |
| N#Cc1ccc(-c2n[nH]c3ncnc(N4CC[C@H]4c4nn5ccc(Cl)c5c(=O)n4-c4ccccc4)c23)cn1 [Compound 173] | 25.7 | – | 48.7 | – | 96.3 | 4 |
| CC(Nc1ncnc2[nH]cc(-c3ccc(N)nc3)c12)c1cc2ncc(Cl)n2c(=O)n1-c1ccccc1 (centres unmarked) [Compound 174] | 97.7 | 23 | 94.0 | 31 | >100 | 1 |
| COc1ncc(-c2c[nH]c3ncnc(NC(C)c4cc5ncc(Cl)n5c(=O)n4-c4ccccc4)c23)cn1 (centres unmarked) [Compound 175] | 90.9 | 78 | 87.6 | 105 | 99.5 | 1 |
| Nc1ccc(-c2c[nH]c3ncnc(N4CCOC[C@H]4c4nn5ccc(Cl)c5c(=O)n4-c4ccccc4)c23)cn1 [Compound 176] | 16.8 | – | 58.3 | – | 97.1 | 5 |
| O=c1c2c(CO)ccn2nc([C@@H]2CCCN2c2ncnc3[nH]cnc23)n1-c1ccccc1 [Compound 177, (S)-2-(1-(9H-purin-6-yl)pyrrolidin-2-yl)-5-(hydroxymethyl)-3-phenylpyrrolo[2,1-f][1,2,4]triazin-4(3H)-one] | 17.0 | – | 79.8 | 89 | 97.1 | 30 |
| Nc1ncc(C(F)(F)F)c(N2CCC[C@H]2c2nn3ccc(CO)c3c(=O)n2-c2ccccc2)n1 [Compound 178] | 1.5 | – | 7.6 | – | 82.3 | 211 |
| N#Cc1c[nH]c2ncnc(N3CCC[C@H]3c3nn4ccc(CO)c4c(=O)n3-c3ccccc3)c12 [Compound 179] | 51.5 | – | 97.9 | 15 | >100 | 2 |
| Nc1ncc(-c2c[nH]c3ncnc(N4CC[C@H]4c4nn5ccc(F)c5c(=O)n4-c4ccccc4)c23)cn1 [Compound 180, (S)-2-(1-(5-(2-aminopyrimidin-5-yl)-7H-pyrrolo[2,3-d]pyrimidin-4-yl)azetidin-2-yl)-5-fluoro-3-phenylpyrrolo[2,1-f][1,2,4]triazin-4(3H)-one] | 92.8 | 41 | 98.7 | 2 | >100 | < 0.46 |
| COc1ncc(-c2c[nH]c3ncnc(N4CC[C@H]4c4nn5ccc(F)c5c(=O)n4-c4ccccc4)c23)cn1 [Compound 181] | 95.9 | 23 | >100 | 4 | >100 | – |
